# US11452717B2, “Small molecule activators of nicotinamide phosphoribosyltransferase (NAMPT) and uses thereof” (Sanford Burnham Prebys Medical Discovery Institute, priority 2017, dated 2022)
# Biological target: NAMPT enzyme (Homo sapiens (Human), UniProt P43490)
# Assay: Enzyme Assay and NMN Detection (NAMPT reaction, fluorescence detection of NMN)
# Type: biochemical
# Details: Table B-2; NAMPT activation, NMN formation
# Procedure: NAMPT reaction was performed in 50 mM HEPES, pH 7.5, containing 5 mM MgCl2, 0.1% Prionex, 0.005% Tween 20, and 1 mM TCEP at room temperature in Greiner 384-well black polypropylene plates. The concentration of substrates and enzymes in the final assay were as follows: ATP (120 uM), nicotinamide (5 uM), phosphoribosylpyrophosphate (6.25 uM), NAMPT enzyme (16 nM), pyrophosphatase (0.04 U/ml) in the final reaction volume 6 uL. Following 2 h incubation the reaction was stopped by addition 2.5 ul 20% acetophenone in dimethyl sulfoxide (DMSO) and 2.5 ul 2 MKOH. Plates were centrifuges and added with 10.5 ul 88% formic acid. The fluorescence (ex380/em460) was measured following another short incubation and 30 min incubation. The increased concentration of NMN was determined from a calibration curve obtained at the time of experiment.
# NAMPT enzyme, sequence (P43490 whole entry, species assumed): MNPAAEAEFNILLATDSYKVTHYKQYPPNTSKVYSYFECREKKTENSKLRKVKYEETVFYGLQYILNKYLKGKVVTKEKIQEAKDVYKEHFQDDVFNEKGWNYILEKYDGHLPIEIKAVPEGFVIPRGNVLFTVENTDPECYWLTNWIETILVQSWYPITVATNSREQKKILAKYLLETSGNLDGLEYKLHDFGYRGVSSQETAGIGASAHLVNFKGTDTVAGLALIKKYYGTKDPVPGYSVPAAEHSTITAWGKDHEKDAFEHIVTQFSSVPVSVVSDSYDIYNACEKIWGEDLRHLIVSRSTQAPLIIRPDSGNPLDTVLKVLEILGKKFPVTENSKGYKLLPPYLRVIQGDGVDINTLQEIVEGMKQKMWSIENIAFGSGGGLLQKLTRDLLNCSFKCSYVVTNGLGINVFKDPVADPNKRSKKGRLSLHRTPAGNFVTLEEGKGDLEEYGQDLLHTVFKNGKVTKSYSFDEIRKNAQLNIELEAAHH
row,EC50,Structure (SMILES)
1,0.1 to 2 µM,"O=C(NCc1ccncc1)Nc1ccc(C(=O)N2CCc3ccccc3C2)cc1 [1-(Pyridin-4-ylmethyl)-3-(4-(1,2,3,4-tetrahydroisoquinoline-2-carbonyl)phenyl)urea]"
2,5 to 20 µM,O=C(NCc1ccncc1)Nc1ccc(C(=O)N2CCCC2)cc1 [1-(Pyridin-4-ylmethyl)-3-(4-(pyrrolidine-1-carbonyl)phenyl)urea]
3,> 20 µM,O=C(NCc1ccncc1)Nc1ccc(OC(F)(F)F)cc1 [1-(Pyridin-4-ylmethyl)-3-(4-(trifluoromethoxy)phenyl)urea]
4,5 to 20 µM,O=C(NCc1ccncc1)Nc1ccc(C(F)(F)F)cc1 [1-(Pyridin-4-ylmethyl)-3-(4-(trifluoromethyl)phenyl)urea]
5,> 20 µM,Cc1ccc(NC(=O)NCc2ccncc2)cc1 [1-(Pyridin-4-ylmethyl)-3-(p-tolyl)urea]

# Same assay, conditions: Table B-3; NAMPT activation, NMN formation
row,EC50,Structure (SMILES)
1,> 20 µM,O=C(NCc1ccccn1)Nc1ccc(OC(F)(F)F)cc1 [1-(Pyridin-2-ylmethyl)-3-(4-(trifluoromethoxy)phenyl)urea]
2,> 20 µM,O=C(NCc1ccccn1)Nc1ccc(C(F)(F)F)cc1 [1-(Pyridin-2-ylmethyl)-3-(4-(trifluoromethyl)phenyl)urea]
3,> 20 µM,Cc1ccc(NC(=O)NCc2ccccn2)cc1 [1-(Pyridin-2-ylmethyl)-3-(p-tolyl)urea]
4,> 20 µM,O=C(NCc1cccnc1)Nc1ccc(OC(F)(F)F)cc1 [1-(Pyridin-3-ylmethyl)-3-(4-(trifluoromethoxy)phenyl)urea]
5,> 20 µM,O=C(NCc1cccnc1)Nc1ccc(C(F)(F)F)cc1 [1-(Pyridin-3-ylmethyl)-3-(4-(trifluoromethyl)phenyl)urea]
6,> 20 µM,Cc1ccc(NC(=O)NCc2cccnc2)cc1 [1-(Pyridin-3-ylmethyl)-3-(p-tolyl)urea]

# Same assay, conditions: Table B-4; NAMPT activation, NMN formation
row,EC50,Structure (SMILES)
1,< 0.1 µM,O=C(NCc1cn[nH]c1)Nc1ccc(S(=O)(=O)c2cccc(F)c2)cc1 [1-((1H-Pyrazol-4-yl)methyl)-3-(4-((3-fluorophenyl)sulfonyl)phenyl)urea]
2,5 to 20 µM,"N#Cc1cccc(-c2ccccc2S(=O)(=O)c2ccc(NC(=O)NCc3cn[nH]c3)cc2)c1 [1-((1H-Pyrazol-4-yl)methyl)-3-(4-((3′-cyano-[1,1′-biphenyl]-2-yl)sulfonyl)phenyl)urea]"
3,0.1 to 2 µM,COc1ccccc1-c1csc(Nc2ccc(NC(=O)NCc3cn[nH]c3)cc2)n1 [1-((1H-Pyrazol-4-yl)methyl)-3-(4-((4-(2-methoxyphenyl)thiazol-2-yl)amino)phenyl)urea]
4,0.1 to 2 µM,COc1cccc(-c2csc(Nc3ccc(NC(=O)NCc4cn[nH]c4)cc3)n2)c1 [1-((1H-Pyrazol-4-yl)methyl)-3-(4-((4-(3-methoxyphenyl)thiazol-2-yl)amino)phenyl)urea]
5,0.1 to 2 µM,COc1ccc(-c2csc(Nc3ccc(NC(=O)NCc4cn[nH]c4)cc3)n2)cc1 [1-((1H-Pyrazol-4-yl)methyl)-3-(4-((4-(4-methoxyphenyl)thiazol-2-yl)amino)phenyl)urea]
6,0.1 to 2 µM,O=C(NCc1cn[nH]c1)Nc1ccc(S(=O)(=O)c2ccc(C(F)(F)F)cc2)cc1 [1-((1H-Pyrazol-4-yl)methyl)-3-(4-((4-(trifluoromethyl)phenyl)sulfonyl)phenyl)urea]
7,< 0.1 µM,O=C(NCc1cn[nH]c1)Nc1ccc(S(=O)(=O)c2ccc(F)cc2)cc1 [1-((1H-Pyrazol-4-yl)methyl)-3-(4-((4-fluorophenyl)sulfonyl)phenyl)urea]
8,0.1 to 2 µM,O=C(NCc1cn[nH]c1)Nc1ccc(Nc2nc(-c3ccccc3)cs2)cc1 [1-((1H-Pyrazol-4-yl)methyl)-3-(4-((4-phenylthiazol-2-yl)amino)phenyl)urea]
9,5 to 20 µM,"N#Cc1ccc(-c2ccccc2S(=O)(=O)c2ccc(NC(=O)NCc3cn[nH]c3)cc2)cc1 [1-((1H-Pyrazol-4-yl)methyl)-3-(4-((4′-cyano-[1,1′-biphenyl]-2-yl)sulfonyl)phenyl)urea]"
10,0.1 to 2 µM,O=C(NCc1cn[nH]c1)Nc1ccc(Nc2ncc(-c3ccccc3)s2)cc1 [1-((1H-Pyrazol-4-yl)methyl)-3-(4-((5-phenylthiazol-2-yl)amino)phenyl)urea]
11,< 0.1 µM,"O=C(NCc1cn[nH]c1)Nc1ccc(S(=O)(=O)c2ccccc2-c2ccccc2)cc1 [1-((1H-Pyrazol-4-yl)methyl)-3-(4-([1,1′-biphenyl]-2-ylsulfonyl)phenyl)urea]"
12,0.1 to 2 µM,"O=C(NCc1cn[nH]c1)Nc1ccc(S(=O)(=O)c2cccc(-c3ccccc3)c2)cc1 [1-((1H-Pyrazol-4-yl)methyl)-3-(4-([1,1′-biphenyl]-3-ylsulfonyl)phenyl)urea]"
13,5 to 20 µM,O=C(NCc1cn[nH]c1)Nc1ccc(-c2nc3ccccc3s2)cc1 [1-((1H-Pyrazol-4-yl)methyl)-3-(4-(benzo[d]thiazol-2-yl)phenyl)urea]
14,> 20 µM,O=C(NCc1cn[nH]c1)Nc1ccc(Nc2nc3ccccc3s2)cc1 [1-((1H-Pyrazol-4-yl)methyl)-3-(4-(benzo[d]thiazol-2-ylamino)phenyl)urea]
15,0.1 to 2 µM,O=C(NCc1cn[nH]c1)Nc1ccc(S(=O)(=O)c2ccccn2)cc1 [1-((1H-Pyrazol-4-yl)methyl)-3-(4-(pyridin-2-ylsulfonyl)phenyl)urea]
16,0.1 to 2 µM,O=C(NCc1cn[nH]c1)Nc1ccc(S(=O)(=O)c2ccncc2)cc1 [1-((1H-Pyrazol-4-yl)methyl)-3-(4-(pyridin-4-ylsulfonyl)phenyl)urea]
17,0.1 to 2 µM,O=C(NCc1cn[nH]c1)Nc1ccc(S(=O)(=O)c2cncnc2)cc1 [1-((1H-Pyrazol-4-yl)methyl)-3-(4-(pyrimidin-5-ylsulfonyl)phenyl)urea]

row,Structure (SMILES),EC50
1,"Cc1ccccc1-c1ccccc1S(=O)(=O)c1ccc(NC(=O)NCc2cn[nH]c2)cc1 [1-((1H-Pyrazol-4-yl)methyl)-3-(4-((2′-methyl-[1,l′-biphenyl]-2-yl)sulfonyl)phenyl)urea]",0.1 to 2 µM

# Same assay, conditions: Table B-5; NAMPT activation, NMN formation
row,EC50,Structure (SMILES)
1,5 to 20 µM,O=C(NCc1cnco1)Nc1ccc(-c2ncc(-c3ccccc3)s2)cc1 [1-(Oxazol-5-ylmethyl)-3-(4-(5-phenylthiazol-2-yl)phenyl)urea]
2,2 to 5 µM,O=C(NCc1cnco1)Nc1ccc(Nc2nc(-c3ccccc3)cs2)cc1 [1-(Oxazol-5-ylmethyl)-3-(4-((4-phenylthiazol-2-yl)amino)phenyl)urea]
3,0.1 to 2 µM,O=C(NCc1cnco1)Nc1ccc(Nc2ncc(-c3ccccc3)s2)cc1 [1-(Oxazol-5-ylmethyl)-3-(4-((5-phenylthiazol-2-yl)amino)phenyl)urea]

# The next lines start with the compound.
row,Structure (SMILES),EC50
1,O=C(NCc1cnco1)Nc1ccc(S(=O)(=O)c2cccc(C(F)(F)F)c2)cc1 [1-(Oxazol-5-ylmethyl)-3-(4-((3-(trifluoromethyl)phenyl)sulfonyl)phenyl)urea],0.1 to 2 µM
2,O=C(NCc1cnco1)Nc1ccc(S(=O)(=O)c2ccc(C(F)(F)F)cc2)cc1 [1-(Oxazol-5-ylmethyl)-3-(4-((4-(trifluoromethyl)phenyl)sulfonyl)phenyl)urea],0.1 to 2 µM
3,O=C(NCc1cnco1)Nc1ccc(S(=O)(=O)c2ccccn2)cc1 [1-(Oxazol-5-ylmethyl)-3-(4-(pyridin-2-ylsulfonyl)phenyl)urea],0.1 to 2 µM
4,O=C(NCc1cnco1)Nc1ccc(S(=O)(=O)c2ccncc2)cc1 [1-(Oxazol-5-ylmethyl)-3-(4-(pyridin-4-ylsulfonyl)phenyl)urea],0.1 to 2 µM
5,O=C(NCc1cnco1)Nc1ccc(S(=O)(=O)c2ccccc2C(F)(F)F)cc1 [1-Oxazol-5-ylmethyl-3-[4-(2-trifluoromethyl-benzenesulfonyl)-phenyl]-urea],0.1 to 2 µM
6,O=C(NCc1cnco1)Nc1ccc(S(=O)(=O)c2ccc(OC(F)(F)F)cc2)cc1 [1-Oxazol-5-ylmethyl-3-[4-(4-trifluoromethoxy-benzenesulfonyl)-phenyl]-urea],0.1 to 2 µM
7,O=C(NCc1cnco1)Nc1ccc(S(=O)(=O)c2cnccn2)cc1 [1-Oxazol-5-ylmethyl-3-[4-(pyrazine-2-sulfonyl)-phenyl]-urea],0.1 to 2 µM
8,O=C(NCc1cnco1)Nc1ccc(S(=O)(=O)c2cccnc2)cc1 [1-Oxazol-5-ylmethyl-3-[4-(pyridine-3-sulfonyl)-phenyl]-urea],0.1 to 2 µM
9,O=C(NCc1cnco1)Nc1ccc(S(=O)(=O)c2ncccn2)cc1 [1-Oxazol-5-ylmethyl-3-[4-(pyrimidine-2-sulfonyl)-phenyl]-urea],5 to 20 µM
10,O=C(NCc1cnco1)Nc1ccc(S(=O)(=O)c2nccs2)cc1 [1-Oxazol-5-ylmethyl-3-[4-(thiazole-2-sulfonyl)-phenyl]-urea],0.1 to 2 µM
11,Cc1ccccc1S(=O)(=O)c1ccc(NC(=O)NCc2cnco2)cc1 [1-Oxazol-5-ylmethyl-3-[4-(toluene-2-sulfonyl)-phenyl]-urea],0.1 to 2 µM
12,Cc1cccc(S(=O)(=O)c2ccc(NC(=O)NCc3cnco3)cc2)c1 [1-Oxazol-5-ylmethyl-3-[4-(toluene-3-sulfonyl)-phenyl]-urea],0.1 to 2 µM
13,Cc1ccc(S(=O)(=O)c2ccc(NC(=O)NCc3cnco3)cc2)cc1 [1-Oxazol-5-ylmethyl-3-[4-(toluene-4-sulfonyl)-phenyl]-urea],2 to 5 µM

# Same assay, conditions: Table B-6; NAMPT activation, NMN formation
row,EC50,Structure (SMILES)
1,0.1 to 2 µM,O=C(NCc1cn[nH]c1)Nc1ccc(S(=O)(=O)c2cccc(C(F)(F)F)c2)cc1 [1-((1H-Pyrazol-4-yl)methyl)-3-(4-((3-(trifluoromethyl)phenyl)sulfonyl)phenyl)urea]
2,< 0.1 µM,O=C(NCc1ccncc1)Nc1ccc(S(=O)(=O)c2cccc(C(F)(F)F)c2)cc1 [1-(Pyridin-4-ylmethyl)-3-(4-((3-(trifluoromethyl)phenyl)sulfonyl)phenyl)urea]
3,0.1 to 2 µM,O=C(NCc1ccncc1)Nc1ccc(S(=O)(=O)c2ccncc2)cc1 [1-(Pyridin-4-ylmethyl)-3-(4-(pyridin-4-ylsulfonyl)phenyl)urea]
